Results from patent publication US9018250B2, “Pharmaceutical composition and dosage form comprising dronedarone, and preparation method thereof” (Sanofi, priority 2010, dated 2015).
Converted amounts (≈) assume the structure as drawn. Like-named read-outs stand apart in the source and are kept apart here.

Tests used:
[1] = cited from earlier work
[2] = Solubility of dronedarone hydrochloride and base form in lipid excipients (Table A); assay type: physicochemical
[3] = In-vitro dissolution test with a jump in pH (simulated gastric pH 4, then simulated intestinal pH 6.5); assay type: physicochemical; conditions: for percentage of active principle released (dissolution curves, in words): pH 4 for 60 min, then pH 6.5 up to 180 min, FIG. 1-7
Text: In order to reproduce the effect of pH on the active principle and in particular on its dissolution during its passage through the gastrointestinal tract, a gastrointestinal environment was simulated by reproducing the pH of the stomach and then the pH of the intestine with a jump in pH. The dissolution kinetics was investigated using a simple in-vitro dissolution test with a jump in pH.
The principle consists of determining the dissolution of the formulated active principle by studying its dissolution kinetics at 37° C., firstly in simulated gastric medium at pH 4, then in simulated intestinal medium at pH 6.5, in a time interval consistent with the gastrointestinal tract.
Equipment: precision balance (Mettler AE200 or AT261), pH meter (Knick or Schott Geräte or Inolab), thermostated Dissolutest 6 or 7 bowls (Sotax AT6 or AT7), 5 μm filter (PALL Versapore 25 mm) with syringe (Térumo), UV spectrophotometer (Gilford Response II or Perkin Elmer) or HPLC (Merck or Agilent).
Dissolution media: The simulated physiological media representative of the gastrointestinal tract are obtained from simulated gastric and intestinal fluids recommended by the USP, but used without pepsin or pancreatin. • simulated gastric fluid—USP (without pepsin): • 2 g of sodium chloride per 900 ml of distilled water, • pH adjusted to 1.2 with concentrated hydrochloric acid (37%), • Q.S. 1000 ml with distilled water. • simulated intestinal fluid—USP (without pancreatin): • 6.8 g of potassium dihydrogen phosphate per 900 ml of distilled water, • pH adjusted to 7.5 with concentrated sodium hydroxide (10 M), • Q.S. 1000 ml with distilled water.
The simulated gastric medium of pH 4 is thus obtained by mixing the two simulated fluids in various proportions, monitoring with a pH electrode. The dissolution medium of the intestinal type is adjusted to pH 6.5 with a few drops of concentrated soda (10M) to simulate passage of the active principle into the beginning of the intestine, without leading to dilution.
Standard solutions of active principle are prepared in a solvent medium, preferably in the mobile phase or ethanol or methanol, and then analyzed at the characteristic wavelength of the active principle. A calibration straight line showing the concentrations as a function of the optical densities (analysis by UV spectrophotometry) or of the areas under peak (HPLC analysis) is then determined. The equation of the straight line obtained can be used for determining the concentration of dissolved active principle from measurement of the optical density or of the area under peak.
The concentration used corresponds to the dose in 250 ml (i.e. 4 capsules in a 500-ml bowl). The dissolution kinetics is first investigated in simulated gastric medium of pH 4 in the dissolution test in bowls thermostated at 37° C., with paddle stirring at 75 rpm, for 1 hour with sampling at times 5, 15, 30, 45 and 60 minutes, then in intestinal medium with an increase in pH to 6.5 by adding a small volume of concentrated soda (example: 0.400 ml for 500 ml of medium at pH 4), monitoring with a pH electrode. The kinetics is monitored for 3 hours with sampling at times 75, 90, 120 and 180 minutes and each sample is filtered at 5 μm and then analyzed.
Two methods of analysis can be used depending on the sensitivity required and the dosage form under investigation: UV spectrophotometry (for active principle only) or HPLC (for active principle only or formulated).
The concentration at a time t is determined based on the previously established calibration. During analysis by UV spectrophotometry, the whole absorption spectrum is monitored at least at the end of the kinetic study. In addition, the pH of the medium is monitored at the end of the kinetic study. […]

[4] = cited from earlier work; remark: listed apart in the source
[5] = Capmul PG8 (HLB 5), oil or lipid, in Capmul PG8 (HLB 5), RT, read-out: Solubility
[6] = Captex 355, oil or lipid, in Captex 355, RT, read-out: Solubility
[7] = Cremophor RH 40 (HLB 14), 55 °C, oil or lipid, in Cremophor RH 40 (HLB 14), 55° C., read-out: Solubility
[8] = Gelucire 33/01 (HLB 1), 55 °C, oil or lipid, in Gelucire 33/01 (HLB 1), 55° C., read-out: Solubility
[9] = Gelucire 43/01 (HLB 1), 55 °C, oil or lipid, in Gelucire 43/01 (HLB 1), 55° C., read-out: Solubility
[10] = Labrafac PG, oil or lipid, in Labrafac PG, RT, read-out: Solubility
[11] = Labrafil M1944Cs, oil or lipid, in Labrafil M1944Cs, RT, read-out: Solubility
[12] = Labrasol ALF, oil or lipid, in Labrasol ALF, RT, read-out: Solubility
[13] = Lauroglycol 90, oil or lipid, in Lauroglycol 90, RT, read-out: Solubility
[14] = Lipophilic Labrafac, oil or lipid, in Lipophilic Labrafac, RT, read-out: Solubility
[15] = Miglyol 812N, oil or lipid, in Miglyol 812N, RT, read-out: Solubility
[16] = PEG 400, organic solvent or mixture, in PEG 400, RT, read-out: Solubility
[17] = propylene glycol, organic solvent or mixture, in propylene glycol, RT, read-out: Solubility
[18] = soybean oil, oil or lipid, in soybean oil, RT, read-out: Solubility
[19] = surfactant Chrem RH40 (HLB 14), capsules G24 (HCl) / G25 (base)
[20] = surfactant Pluronic L44 (HLB 12), capsules G26 (HCl) / G27 (base), pH 6.5 after jump, 37° C.
[21] = surfactant Polox 188 (HLB 29), capsules G22 (HCl) / G23 (base)
[22] = surfactant Polox 407 (HLB 22), capsules G1 (HCl) / G5 (base)
[23] = surfactant Tween 60 (HLB 15), capsules G28 (HCl) / G29 (base)

Row | Compound | solubility [2, 5] | solubility [2, 6] | solubility [2, 7] | solubility [2, 8] | solubility [2, 9] | solubility [2, 10] | solubility [2, 11] | solubility [2, 12] | solubility [2, 13] | solubility [2, 14] | solubility [2, 15] | solubility [2, 16] | solubility [2, 17] | solubility [2, 18] | percentage of active principle released (dissolution curves, in words) [3] | % of dronedarone at 180 min [3, 19] | % of dronedarone at 180 min [3, 20] | % of dronedarone at 180 min [3, 21] | % of dronedarone at 180 min [3, 22] | % of dronedarone at 180 min [3, 23] | further results
1 | CCCCc1oc2ccc(NS(C)(=O)=O)cc2c1C(=O)c1ccc(OCCCN(CCCC)CCCC)cc1.Cl [Dronedarone Hydrochloride, 2-n-butyl-3-[4-(3-di-n-butylaminopropoxy)benzoyl]-5-methylsulfonamidobenzofuran hydrochloride] | 10 mg/mL | 0.0353 mg/mL | 14.8 mg/mL | 0.0962 mg/mL | 0.0445 mg/mL | 0.0416 mg/mL | 0.504 mg/mL | 4.84 mg/mL | 2.09 mg/mL | 0.0251 mg/mL | 0.0409 mg/mL | 13.2 mg/mL | 15.8 mg/mL | 0.0231 mg/mL | better profiles for an HLB between 15 and 25 | 59.01% | 49.1% | 69.82% | 90.49% | 58.32% | behaviour on dilution to 1/10 with aqueous solution buffered at pH=7 ([1]; final pH of the medium=6.7): is precipitated; solubility ([1]; room temperature, pH=7): no more than 10 μg/ml
2 | CCCCc1oc2ccc(NS(C)(=O)=O)cc2c1C(=O)c1ccc(OCCCN(CCCC)CCCC)cc1 [Dronedarone Base, 2-n-butyl-3-[4-(3-di-n-butylaminopropoxy)benzoyl]-5-methylsulfonamidobenzofuran] | 517 mg/mL (≈ 929 mM) | 167 mg/mL (≈ 299 mM) | > 313 mg/mL | 371 mg/mL (≈ 667 mM) | 259 mg/mL (≈ 465 mM) | 184 mg/mL (≈ 330 mM) | 208 mg/mL (≈ 374 mM) | 401 mg/mL (≈ 721 mM) | 311 mg/mL (≈ 558 mM) | 129 mg/mL (≈ 231 mM) | 144 mg/mL (≈ 258 mM) | 273 mg/mL (≈ 491 mM) | 18.2 mg/mL (≈ 32.7 mM) | 60.7 mg/mL (≈ 109 mM) | equivalent regardless of which nonionic surfactant is used | 85.3% | 76.38% | 71.32% | 72.89% | 81.12% | absolute bioavailability ([4]; taken with food): no more than 15%; absorption after oral administration ([4]; with a meal): at least 70%; solubility ([2]; Crodamol EO (ethyl oleate), oil or lipid, in Crodamol EO (ethyl oleate), RT, read-out: Solubility): 154 mg/mL (≈ 276 mM); solubility ([2]; Gelucire 44/14 (HLB 14), 55 °C, oil or lipid, in Gelucire 44/14 (HLB 14), 55° C., read-out: Solubility): 633 mg/mL (≈ 1140 mM); solubility ([2]; Labrasol, oil or lipid, in Labrasol, RT, read-out: Solubility): > 400 mg/mL; solubility ([2]; ethanol, organic solvent or mixture, in ethanol, RT, read-out: Solubility): > 500 mg/mL; solubility ([2]; in Labrafil M1944Cs, RT): 192.6 mg/mL (≈ 346 mM); solubility ([2]; in Miglyol 812N, RT): 141.6 mg/mL (≈ 254 mM); solubility ([2]; in PEG 400, RT): 280.1 mg/mL (≈ 503 mM); solubility ([2]; in soybean oil, RT): 87.7 mg/mL (≈ 158 mM); solubility ([2]; oleic acid, oil or lipid, in Oleic acid, RT, read-out: Solubility): > 341 mg/mL; solubility ([2]; sweet almond oil, oil or lipid, in sweet almond oil, RT, read-out: Solubility): 45.2 mg/mL (≈ 81.2 mM)
